The record followed here is patent publication US7977366B2, “Treating an inflammatory disorder or inhibiting respiratory burst in adherent neutrophils with chemical inhibitors of neutrophil activation” (Cornell Research Foundation, Inc., priority 2003, dated 2011).

“Also recorded” adds a separate entry of the source.

For experiment [1], the system named is human neutrophils. In words: TNF triggered degranulation of neutrophils (lactoferrin and myeloperoxidase release, ELISA). Format: cell-based. Particulars: for myeloperoxidase (MPO) release triggered by TNF: marker of azurophil granule; for lactoferrin (LF) release triggered by TNF: marker of specific granule. As to the method:
Respiratory burst was measured as described elsewhere (De la Harpe et al., “A Semi-Automated Micro-Assay for H2O2 Release by Human Blood Monocytes and Mouse Peritoneal Macrophages,” J Immunol Methods 78:323-336 (1985), which is hereby incorporated by reference in its entirety). Briefly, 96-well flat-bottomed plates (Primaria, Falcon) were coated with 50 μl/well of FBS in 5% CO2 at 37° C. for at least 1 h and washed three times with 0.9% saline. Neutrophils (1.5×10^4) were added to triplicate wells containing 100 μl of reaction mixture (2.4 nm scopoletin, 0.5 μg horseradish peroxidase (HRP), and 1 mM NaN3) and stimulated with either buffer control, TNF (PreproTech, London, UK) or phorbol myristate acetate (PMA), each at 100 ng/ml. The reduction of scopoletin by H2O2 was recorded every 15 min on a plate-reading fluorometer until H2O2 release reached plateau and the amount of H2O2 released calculated as described (De la Harpe et al., “A Semi-Automated Micro-Assay for H2O2 Release by Human Blood Monocytes and Mouse Peritoneal Macrophages,” J Immunol Methods 78:323-336 (1985), which is hereby incorporated by reference in its entirety). The supernatant from the H2O2 release assay with 1.5×10^4 neutrophils was used to measure degranulation using lactoferrin (LF) or myeloperoxidase (MPO) ELISA kit (Oxis International, Inc., Portland, Oreg.). Spontaneous cell death from the same supernatant was measured using Cytotoxicity Detection Kit (Roche Molecular Biochemicals, Nutley, N.J.). The total cell content of LF, MPO, and lactate dehydrogenase (LDH) was determined after lysing cells with 1% Triton X100. LDH is a cytosolic enzyme whose release indicates cell lysis, such that high release of LF or MPO in the face of low release of LDH is taken as a measure of degranulation.
To test whether any of these compounds has any role in degranulation, the release of lactoferrin (LF) (as a marker of specific granule) and myeloperoxidase (MPO, as a marker of azurophil granule) were measured in the supernatant. […] The effect of Comp I on LF release was inconclusive due to high background release of LF in non-stimulated cells.
On the technique in general: An ELISA detects its analyte on a solid surface through an enzyme-linked reagent.

For experiment [2], the system named is human neutrophils. The experiment in a line: Reversibility of inhibition of TNF triggered respiratory burst after washing. Format: cell-based. Particulars: washed twice with cold KRPG before TNF 100 ng/ml. As to the method:
Neutrophils were incubated with test compounds I-V or DMSO at 37° C. for 30 min in FBS coated tubes (Falcon, Cat. Number 352063), washed twice with cold KRPG, and plated in 96 well plates before stimulation with TNF (100 ng/ml) or an equivalent volume of KRPG buffer as a control. On a separate plate, compounds were added back to the neutrophils that were washed off compounds, and cells were stimulated to ensure neutrophils' capacity to respond. Neutrophils incubated with each compound without washing were also stimulated for comparison.

Experiment [3] concerns human neutrophils. The experiment in a line: Killing of bacteria by neutrophils. Format: cell-based.
A further experiment deals with Pyk2. In words: TNF-induced phosphorylation of Pyk2 Y402 in neutrophils (western blot). Format: cell-based, human. How it is done:
Tissue culture plates (Primaria, Falcon) were coated with 3 ml of FBS in 5% CO2 at 37° C. for at least 1 h and washed twice with 0.9% saline. Isolated human neutrophils (1.5×10^6) were added to each plate containing 4 ml of reaction mixture, incubated with each compound at 37° C. for 30 min, and stimulated with either buffer control or TNF (100 ng/ml). When cells were fully spread (20-40 min), they were treated with 5 mM diisopropylfluorophosphate to inhibit serine proteases and lysed with either 125 μl of SDS lysis buffer (10 mM Tris-HCl, pH 7.6, 150 mM NaCl, 1% SDS, 1 mM PMSF, 1 mM Na pyrophosphate, 1 mM NaF, 1 mM vanadate, 5 μg/ml each of aprotinin, leupeptin, chymostatin, pepstatin A) for western blot, or with 200 μl of non-denaturing modified RIPA buffer (10 mM Tris-HCl, pH 7.6, 150 mM NaCl, 1% Triton-X100, 1 mM PMSF, 1 mM Na pyrophosphate, 1 mM NaF, 1 mM vanadate, 5 μg/ml each of aprotinin, leupeptin, chymostatin, pepstatin A) for immunoprecipitation. The cell lysate was passed through a 26-gauge needle six times to shear DNA and centrifuged at 20,000×g for 15 min to remove cell debris and DNA. The protein concentration was determined using a Bio-Rad (Indianapolis, Ind.) kit. […] After further washing with TBST, bound antibody was detected by enhanced chemiluminescence (Pierce ECL, Amersham Pharmacia, Piscataway, N.J.). […]
(In general: A western blot detects proteins with antibodies after separation by electrophoresis.)

`O=C(CSc1nc2ccccc2s1)N/N=C/c1cc([N+](=O)[O-])ccc1O` [Comp IV, (Benzothiazol-2-ylsulfanyl)-acetic acid (2-hydroxy-5-nitro-benzylidene) -hydrazide]: in the experiment with human neutrophils [1], the “myeloperoxidase (MPO) release triggered by TNF” value (“myeloperoxidase” for short) was “almost complete inhibition” and the “lactoferrin (LF) release triggered by TNF” value (from here on “lactoferrin”) is listed as “partially inhibited”.

On to `C(=N\Nc1ncnc2sc3c(c12)CCCC3)/c1cccnc1` [Comp III, N-Pyridin-3-ylmethylene-N-(5,6,7,8-tetrahydro-benzo[4,5] [2,3-a]pyrimidin-4-yl)-hydrazine], for which, in the experiment with human neutrophils [1], the “myeloperoxidase” value was “almost complete inhibition” and the “lactoferrin” value is recorded as “partially inhibited”.

As to `Cc1nc(N/N=C/c2ccccc2O)c2c3c(sc2n1)CCCC3` [Comp I, 2-[(2-Methyl-5,6,7,8-tetrahydro-benzo[4,5]thieno [2,3-a]pyrimidin-4-yl)-hydrazonomethyl]-phenol], in the experiment on human neutrophils [1], the “myeloperoxidase” value is “almost complete inhibition” and the “lactoferrin” value is recorded as “inconclusive”.

On to `O=C1CC(c2ccccc2)=NN1c1cccc(Cl)c1` [Comp II, 2-(3-Chloro-phenyl)-5-phenyl-2,4-dihydro-pyrazol-3-one], for which, in the experiment with human neutrophils [2], the “reversibility of inhibition of TNF triggered respiratory burst” value is “greatest reversibility”. In addition, in the experiment on human neutrophils [3], the “bacterial killing ability of PMNs (general statement)” value was “sparing”. Further, in the experiment on human neutrophils [1], the “degranulation of neutrophils (general statement)” value is “takes place normally; also recorded: sparing”, the “myeloperoxidase” value was “very moderate inhibition” and the “lactoferrin” value is listed as “did not block”. Moreover, in the experiment on Pyk2, the “TNF-induced phosphorylation of Pyk2 Y402 (activation of Pyk2)” value is “did not block”.
